According to article PMC6470838 (Pharmaceutics, 2019):
Like-named read-outs stand apart in the source and are kept apart here.

Legend:
prothrombin time [1] = tested on: prothrombin time
[2] = Rivaroxaban plasma pharmacokinetics after oral administration in rats (model independent analysis); format: in vivo, Sprague Dawley rats
Description: The animals used in this study were 15 Sprague Dawley rats (8-week-old males, 280–300 g). […] The study protocol was approved by the Institutional Animal Care and Use Committees (IACUC) at Chung-Ang University. All animals used in this study were cared for in accordance with the principles outlined in the National Institutes of Health Guide for the Care and Use of Laboratory Animals.
(§1) All drugs were suspended in corn oil and administered orally.
(§2) After centrifugation (17,000 rpm, 10 min), plasma samples were stored at –70 °C until analysis, using 30 μL of plasma.
Acetonitrile (90 μL) including flufenamic acid (10 ng/mL) was added to the plasma samples (30 μL). The mixture was vigorously vortexed for 10 s and centrifuged at 17,000 rpm for 10 min. A 5-μL sample of the supernatant was injected onto the LC-MS/MS.
The compounds were purified on a reversed-phase column (Atlantis® T3, 50 × 2.1 mm internal diameter, 3 µm particle size; Waters) at 30 °C.

prothrombin time [3] = experiment: Prothrombin time after oral administration of rivaroxaban in rats; format: in vivo, Sprague Dawley rats; conditions: for AUEC, area under the percentage increase of prothrombin time vs. time curve / Emax, maximum percentage increase of prothrombin time: rivaroxaban 2 mg/kg oral, alone or with verapamil 25 mg/kg or diltiazem 30 mg/kg, mean (RSD %), n = 5
Description: as §1, §2
Prothrombin time was measured using a blood coagulation analyzer (ACL 7000, Instrumentation Laboratory, Bedford, MA, USA) at Korea Conformity Laboratories (Incheon, Korea) using PT recombiPlasTin 2G reagent (Instrumentation Laboratory, Bedford, MA, USA).
The time courses of prothrombin time were used to determine pharmacodynamic parameters: peak effect observed (Emax,observed) was directly obtained from the individual time courses; and the area under the effect-time curve (AUECt) was calculated by the trapezoidal rule.

prothrombin time [4] = conditions: humans; cited from earlier work
in vivo = conditions: male, Sprague Dawley, rat, plasma, oral, 2 mg/kg
[5] = ketoconazole 400 mg, qd; cited from earlier work
[6] = PK/PD model parameter of rivaroxaban, presence or absence of verapamil, mean (RSD %), n = 5
[7] = male, Sprague Dawley, rat, plasma, po, 2 mg/kg
[8] = compared with rivaroxaban 2 mg/kg alone, verapamil 25 mg/kg oral, rats
[9] = diltiazem 30 mg/kg oral, rats, vs rivaroxaban alone

## O=C(NC[C@H]1CN(c2ccc(N3CCOCC3=O)cc2)C(=O)O1)c1ccc(Cl)s1 [Rivaroxaban]
Prothrombin time [1]; [6]
  Slope, percentage increase of prothrombin time vs. rivaroxaban plasma concentration: 0.08 (44) %·mL/ng
  f, absorption fraction: 0.61 (30) fraction
  ka, absorption rate constant: 0.63 (22) h^−1
  ttransit, transit time: 6.37 (21) h
Prothrombin time [1]; PK/PD model parameter of rivaroxaban, presence or absence of verapamil, mean (RSD %), n = 5, listed as rivaroxaban
  ttransit, transit time: 6.4 h
Prothrombin time [1]; rats, prothrombin times rescaled to ratio of baseline
  Slope of relative prothrombin time (ratio of the baseline level) vs. rivaroxaban plasma concentration: 0.00054
Prothrombin time [1]; rivaroxaban alone, model estimate
  Part of the dose initially absorbed, contributing to the first peak: 40%
[2]; [7]
  AUC(0-inf): 2700 ng·h/mL
  CL/F: 12.9 mL/min/kg
  Cmax: 373 ng/mL
  Tmax: 2.8 h
[2]; rivaroxaban in plasma, rivaroxaban 2 mg/kg oral, alone or with verapamil 25 mg/kg or diltiazem 30 mg/kg, mean (RSD %), n = 5
  AUCinf: 2700 ng·h/mL
Prothrombin time [3]
  AUEC, area under the percentage increase of prothrombin time vs. time curve: 188 (9) % ∙h
  Emax, maximum percentage increase of prothrombin time: 30 (11) %
Prothrombin time [3]; listed as rivaroxaban
  AUEC, area under the percentage increase of prothrombin time vs. time curve: 188 % ∙h
  Emax, maximum percentage increase of prothrombin time: 30%
Prothrombin time [4]
  Slope of relative prothrombin time vs. rivaroxaban plasma concentration: approximately 0.0029
In vivo
  Vd/F: 0.96 L/kg
  k el: 0.000236 s⁻¹

## COc1ccc(CCN(C)CCCC(C#N)(c2ccc(OC)c(OC)c2)C(C)C)cc1OC (stereo not shown) [Verapamil]
Prothrombin time [1]; verapamil 25 mg/kg, rats
  Effect of the co-administered drug on the slope (percentage increase of prothrombin time vs. rivaroxaban concentration): no difference
Prothrombin time [3]; [8]
  Increase of AUEC of prothrombin time by the co-administered drug: 2.6 fold
  Increase of Emax of prothrombin time by the co-administered drug: 2.5 fold

## COc1ccc([C@@H]2Sc3ccccc3N(CCN(C)C)C(=O)[C@@H]2OC(C)=O)cc1 [diltiazem]
[2]; [9]
  Effect of the co-administered drug on clearance and AUCinf of rivaroxaban: no statistical differences
Prothrombin time [3]; [9]
  Effect of the co-administered drug on Emax and AUEC of prothrombin time: did not represent any significant changes

## CC(=O)N1CCN(c2ccc(OCC3COC(Cn4ccnc4)(c4ccc(Cl)cc4Cl)O3)cc2)CC1 (stereo not shown) [ketoconazole]
[5]
  Effect of the concomitant drug on the systemic exposure of rivaroxaban: significantly increased
